Data on 5 molecules can be found in ChEMBL document CHEMBL1133072, “Synthesis and biological activity of 1beta-methyl-2-[5'-isoxazoloethenylpyrrolidin-3'-ylthio]carbapenems” (2000).

Values after ≈ are worked out from the molar mass of the structure shown.

Assay [1] deals with Pseudomonas aeruginosa. As to the kind of experiment: Minimum inhibitory concentration against Pseudomonas aeruginosa 9027 was determined by agar dilution method using Mueller-Hinton. It is filed as functional. Background: In agar dilution the substance is mixed into plates at graded concentrations.
Assay [2] addresses Dipeptidase 1 (Sus scrofa) (UniProt P22412). As to the kind of experiment: Relative half life of hydrolysis to meropenem by partially purified porcine renal DHP-I was determined.
Assay [3] has as its system Escherichia coli. As to the kind of experiment: Minimum inhibitory concentration against Escherichia coli 055 was determined by agar dilution method using Mueller-Hinton. In kind it is functional.
Another assay has as its system Enterobacter cloacae. As to the kind of experiment: Minimum inhibitory concentration against Enterobacter cloacae 1321E was determined by agar dilution method using Mueller-Hinton. It is filed as functional.
Assay [4] has as its system Staphylococcus aureus. As to the kind of experiment: Minimum inhibitory concentration against Staphylococcus aureus SG 511 was determined by agar dilution method using Mueller-Hinton. In kind it is functional.
Assay [5] relates to Staphylococcus aureus. As to the kind of experiment: Minimum inhibitory concentration against Staphylococcus aureus 503 was determined by agar dilution method using Mueller-Hinton. It is filed as functional.
The next assay relates to Streptococcus pyogenes. As to the kind of experiment: Minimum inhibitory concentration against Streptococcus pyogenes 308A was determined by agar dilution method using Mueller-Hinton. In kind it is functional.
Assay [6] relates to Pseudomonas aeruginosa. As to the kind of experiment: Minimum inhibitory concentration against Pseudomonas aeruginosa 1592E was determined by agar dilution method using Mueller-Hinton. In kind it is functional.
Assay [7] relates to Staphylococcus aureus. As to the kind of experiment: Minimum inhibitory concentration against Staphylococcus aureus 285 was determined by agar dilution method using Mueller-Hinton. In kind it is functional.
Assay [8] deals with Escherichia coli. As to the kind of experiment: Minimum inhibitory concentration against Escherichia coli 1507E was determined by agar dilution method using Mueller-Hinton. It is filed as functional.
In a further assay the test system is Klebsiella aerogenes. As to the kind of experiment: Minimum inhibitory concentration against Klebsiella aerogenes 1522E was determined by agar dilution method using Mueller-Hinton. It is filed as functional.
Another assay deals with Salmonella typhimurium. As to the kind of experiment: Minimum inhibitory concentration against Salmonella Typhimurium was determined by agar dilution method using Mueller-Hinton. In kind it is functional, Salmonella enterica subsp. enterica serovar Typhimurium. Conditions: Salmonella enterica.
In assay [9] the test system is Pseudomonas aeruginosa. As to the kind of experiment: Minimum inhibitory concentration against Pseudomonas aeruginosa 1771M was determined by agar dilution method using Mueller-Hinton. In kind it is functional.
In assay [10] the target is Dipeptidase 1 (Sus scrofa) (UniProt P22412). As to the kind of experiment: Stability to porcine renal DHP-I was determined.
Sequence of Dipeptidase 1 (Sus scrofa) (P22412 whole entry, looked up): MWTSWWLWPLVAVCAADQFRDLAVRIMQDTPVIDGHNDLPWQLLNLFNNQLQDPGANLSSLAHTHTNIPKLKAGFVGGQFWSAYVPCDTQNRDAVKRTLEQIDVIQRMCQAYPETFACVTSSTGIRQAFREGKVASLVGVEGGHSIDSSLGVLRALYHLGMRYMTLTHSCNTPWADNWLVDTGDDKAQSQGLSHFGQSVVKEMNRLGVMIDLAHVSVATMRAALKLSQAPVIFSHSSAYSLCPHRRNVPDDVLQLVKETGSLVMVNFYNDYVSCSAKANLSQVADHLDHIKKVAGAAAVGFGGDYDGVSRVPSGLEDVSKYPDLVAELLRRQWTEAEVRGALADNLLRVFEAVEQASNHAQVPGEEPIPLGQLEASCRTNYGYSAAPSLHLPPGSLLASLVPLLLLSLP

In general, MIC refers to the lowest concentration found to suppress growth. Read a high MIC as a less susceptible organism. For `C[C@@H](O)[C@H]1C(=O)N2C(C(=O)O)=C(S[C@@H]3CN[C@H](/C=C/c4ccon4)C3)[C@H](C)[C@H]12`, the MIC worked out at 3.12 µg/mL (≈ 7.71 µM) in the assay on Pseudomonas aeruginosa [1]; 0.098 µg/mL (≈ 0.242 µM) with Escherichia coli [3]; 0.049 µg/mL (≈ 0.121 µM) in the assay on Enterobacter cloacae; 0.195 µg/mL (≈ 0.481 µM) against Staphylococcus aureus [4]; 0.098 µg/mL (≈ 0.242 µM) against Staphylococcus aureus [5]; 0.025 µg/mL (≈ 0.0617 µM) with Streptococcus pyogenes. Moreover, the MIC is 3.12 µg/mL (≈ 7.71 µM) in the assay with Pseudomonas aeruginosa [6]; 0.195 µg/mL (≈ 0.481 µM) against Staphylococcus aureus [7]; 0.098 µg/mL (≈ 0.242 µM) against Escherichia coli [8]; 0.098 µg/mL (≈ 0.242 µM) in the assay on Klebsiella aerogenes; 0.098 µg/mL (≈ 0.242 µM) in the assay with Salmonella typhimurium; 0.781 µg/mL (≈ 1.93 µM) in the assay on Pseudomonas aeruginosa [9]. Further, in assay [2], the Relativity is 2.33.

In the case of `COC(=O)c1cc(/C=C/[C@@H]2C[C@H](SC3=C(C(=O)O)N4C(=O)[C@H]([C@@H](C)O)[C@H]4[C@H]3C)CN2)on1`, the MIC stood at 0.098 µg/mL (≈ 0.211 µM) against Pseudomonas aeruginosa [1]; 0.025 µg/mL (≈ 0.0539 µM) with Escherichia coli [3]; 0.025 µg/mL (≈ 0.0539 µM) against Enterobacter cloacae; 0.049 µg/mL (≈ 0.106 µM) against Staphylococcus aureus [4]; 0.025 µg/mL (≈ 0.0539 µM) against Staphylococcus aureus [5]; 0.007 µg/mL (≈ 0.0151 µM) in the assay on Streptococcus pyogenes. In addition, the MIC in the assay with Pseudomonas aeruginosa [6] is 0.195 µg/mL (≈ 0.421 µM); in the assay with Staphylococcus aureus [7], 0.049 µg/mL (≈ 0.106 µM); against Escherichia coli [8], 0.025 µg/mL (≈ 0.0539 µM); against Klebsiella aerogenes, 0.049 µg/mL (≈ 0.106 µM); against Salmonella typhimurium, 0.025 µg/mL (≈ 0.0539 µM); against Pseudomonas aeruginosa [9] it was 0.098 µg/mL (≈ 0.211 µM). Further, in assay [2], the Relativity came out at 2.68.

On to `C[C@@H](O)[C@H]1C(=O)N2C(C(=O)O)=C(S[C@@H]3CN[C@H](/C=C/c4cc(CO)no4)C3)[C@H](C)[C@H]12`, for which the MIC was determined as 0.195 µg/mL (≈ 0.448 µM) in the assay with Pseudomonas aeruginosa [1]; 0.025 µg/mL (≈ 0.0574 µM) against Escherichia coli [3]; 0.025 µg/mL (≈ 0.0574 µM) against Enterobacter cloacae; 0.025 µg/mL (≈ 0.0574 µM) against Staphylococcus aureus [4]; 0.025 µg/mL (≈ 0.0574 µM) against Staphylococcus aureus [5]; 0.007 µg/mL (≈ 0.0161 µM) with Streptococcus pyogenes. Besides, the minimum inhibitory concentration (MIC) with Pseudomonas aeruginosa [6] was 0.195 µg/mL (≈ 0.448 µM); in the assay with Staphylococcus aureus [7] it was 0.025 µg/mL (≈ 0.0574 µM); in the assay on Escherichia coli [8], 0.025 µg/mL (≈ 0.0574 µM); with Klebsiella aerogenes, 0.049 µg/mL (≈ 0.113 µM); in the assay with Salmonella typhimurium, 0.049 µg/mL (≈ 0.113 µM); against Pseudomonas aeruginosa [9], 0.098 µg/mL (≈ 0.225 µM). In assay [2], this molecule gave a Relativity of 2.01.

Take `C[C@@H](O)[C@H]1C(=O)N2C(C(=O)O)=C(S[C@@H]3CN[C@H](C(=O)N(C)C)C3)[C@H](C)[C@H]12` [MEROPENEM]: the MIC came out at 0.195 µg/mL (≈ 0.509 µM) against Pseudomonas aeruginosa [1]; 0.025 µg/mL (≈ 0.0652 µM) in the assay on Escherichia coli [3]; 0.025 µg/mL (≈ 0.0652 µM) in the assay with Enterobacter cloacae; 0.195 µg/mL (≈ 0.509 µM) against Staphylococcus aureus [4]; 0.098 µg/mL (≈ 0.256 µM) in the assay with Staphylococcus aureus [5]; 0.013 µg/mL (≈ 0.0339 µM) against Streptococcus pyogenes. Moreover, the MIC turned out to be 0.195 µg/mL (≈ 0.509 µM) against Pseudomonas aeruginosa [6]; 0.195 µg/mL (≈ 0.509 µM) in the assay with Staphylococcus aureus [7]; 0.025 µg/mL (≈ 0.0652 µM) with Escherichia coli [8]; 0.049 µg/mL (≈ 0.128 µM) in the assay with Klebsiella aerogenes; 0.049 µg/mL (≈ 0.128 µM) in the assay on Salmonella typhimurium; 0.049 µg/mL (≈ 0.128 µM) against Pseudomonas aeruginosa [9]. This molecule also gave an Activity in assay [10] of 1.

As for `COc1cc(/C=C/[C@@H]2C[C@H](SC3=C(C(=O)O)N4C(=O)[C@H]([C@@H](C)O)[C@H]4[C@H]3C)CN2)on1`, the MIC is 12.5 µg/mL (≈ 28.7 µM) in the assay with Pseudomonas aeruginosa [1]; 0.098 µg/mL (≈ 0.225 µM) in the assay on Escherichia coli [3]; 0.195 µg/mL (≈ 0.448 µM) against Enterobacter cloacae; 0.049 µg/mL (≈ 0.113 µM) in the assay on Staphylococcus aureus [4]; 0.049 µg/mL (≈ 0.113 µM) with Staphylococcus aureus [5]; 0.007 µg/mL (≈ 0.0161 µM) in the assay with Streptococcus pyogenes. For the same molecule, the MIC amounted to 12.5 µg/mL (≈ 28.7 µM) in the assay with Pseudomonas aeruginosa [6]; 0.025 µg/mL (≈ 0.0574 µM) in the assay on Staphylococcus aureus [7]; 0.391 µg/mL (≈ 0.898 µM) with Escherichia coli [8]; 0.391 µg/mL (≈ 0.898 µM) in the assay on Klebsiella aerogenes; 0.195 µg/mL (≈ 0.448 µM) with Salmonella typhimurium; 6.25 µg/mL (≈ 14.4 µM) with Pseudomonas aeruginosa [9]. In addition, the Relativity in assay [2] was determined as 2.14.
